Test results published in the supplement of paper PMC11061612.

How the values were obtained:
COLO-829 (Melanoma) = assay: Bliss excess, mean over the matrix (fraction); higher = more synergy
Outline: (§1)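 Cell lines in DMEM/F12 or RPMI with 10% FBS were plated in 1536-well plates, held 24 hours at 37°C, 5% CO2, then given two-drug dose matrices for 72 hours (DMSO typically 0.2%). Viability was read by CellTiter-Glo 2.0 luminescence and scaled as inhibition from 0 (vehicle wells) to 1 (blank wells). Combination Emax is the second-highest inhibition in the matrix; Bliss excess is observed combination effect minus expected EA + EB − EA·EB, EA and EB being single-agent effects.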

[1] = test system: LB771-HNC (Head and Neck Carcinoma); assay: as above
Outline: as §1

[2] = test system: KARPAS-231 (B-Cell Non-Hodgkin's Lymphoma); assay: as above
Outline: as §1

[3] = test system: LoVo (Colorectal Carcinoma); assay: as above
Outline: as §1

[4] = test system: 8305C (Thyroid Gland Carcinoma); assay: as above
Outline: as §1

[5] = test system: RT-112 (Bladder Carcinoma); assay: as above
Outline: as §1

[6] = test system: 639-V (Bladder Carcinoma); assay: as above
Outline: as §1

[7] = test system: RKO (Colorectal Carcinoma); assay: as above
Outline: as §1

Mewo (Melanoma) = assay: as above
Outline: as §1

[8] = test system: SU-DHL-6 (B-Cell Non-Hodgkin's Lymphoma); assay: as above
Outline: as §1

[9] = test system: HARA (Squamous Cell Lung Carcinoma); assay: as above
Outline: as §1

[10] = test system: CTB-1 (B-Cell Non-Hodgkin's Lymphoma); assay: as above
Outline: as §1

[11] = test system: EN (Endometrial Carcinoma); assay: as above
Outline: as §1

[12] = test system: NCI-H69 (Small Cell Lung Carcinoma); assay: as above
Outline: as §1

[13] = test system: OVCAR-8 (Ovarian Carcinoma); assay: as above
Outline: as §1

[14] = test system: HO-1-u-1 (Oral Cavity Carcinoma); assay: as above
Outline: as §1

[15] = test system: LoVo (Colorectal Carcinoma); assay: combination Emax (second highest fraction inhibited in the dose matrix, 72 h); higher = more inhibition; extreme values may be limits of the assay
Outline: as §1

NCI-H28 (Mesothelioma) = assay: as above
Outline: as §1

[16] = test system: OC-314 (Ovarian Carcinoma); assay: as above
Outline: as §1

[17] = test system: HARA (Squamous Cell Lung Carcinoma); assay: as above
Outline: as §1
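Wherever Bliss excess, mean over the matrix is given: after 72 h of two-drug dosing.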

| SMILES | Bliss excess (COLO-829 (Melanoma)) | Bliss excess [1] | Bliss excess [2] | Bliss excess [3] | Bliss excess [4] | Bliss excess [5] | Bliss excess [6] | Bliss excess [7] | Bliss excess (Mewo (Melanoma)) | Bliss excess [8] | Bliss excess [9] | Bliss excess [10] | Bliss excess [11] | Bliss excess [12] | Bliss excess [13] | Bliss excess [14] | combination Emax [15] | combination Emax (NCI-H28 (Mesothelioma)) | combination Emax [16] | combination Emax [17] |
| --- | --- | --- | --- | --- | --- | --- | --- | --- | --- | --- | --- | --- | --- | --- | --- | --- | --- | --- | --- | --- |
| CC1(C)CCC(CN2CCN(c3ccc(C(=O)NS(=O)(=O)c4ccc(NCC5CCOCC5)c([N+](=O)[O-])c4)c(Oc4cnc5[nH]ccc5c4)c3)CC2)=C(c2ccc(Cl)cc2)C1 [Venetoclax] + C=CCn1c(=O)c2cnc(Nc3ccc(N4CCN(C)CC4)cc3)nc2n1-c1cccc(C(C)(C)O)n1 [AZD1775] (first compound max 1 µM, partner max 1 µM) | -0.012 | 0.0127 | -0.047 | -0.0625 | -0.0431 | 0.0891 | -0.0322 | 0.0487 | -0.0079 | 0.0009 | 0.0494 | -0.0812 | 0.0619 | -0.0251 | -0.0326 | -0.0256 | 0.741 | 0.336 | 0.933 | 0.899 |
| Cc1cc2ncnn2cc1Nc1ncc2c(n1)n(C1CCOCC1)c(=O)n2C [AZD7648] + O=C(c1cc(Cc2n[nH]c(=O)c3ccccc23)ccc1F)N1CCN(C(=O)C2CC2)CC1 [Olaparib] (first compound max 10 µM, 7x7, partner max 10 µM) | -0.0378 | -0.0542 | 0.0132 | -0.0382 | -0.0478 | -0.0152 | -0.0184 | -0.0152 | -0.0885 | -0.0263 | -0.0114 | -0.0489 | -0.0423 | -0.0151 | -0.0103 | -0.0481 | 0.533 | 0.131 | 0.24 | 0.314 |
| CN(CCO)CC[C@H](CSc1ccccc1)Nc1ccc(S(=O)(=O)NC(=O)c2ccc(N3CCC([C@@H](O)c4ccccc4-c4ccc(Cl)cc4)CC3)cc2)cc1S(=O)(=O)C(F)(F)F [AZD4320] + CCN(CCO)CCCOc1ccc2c(Nc3cc(CC(=O)Nc4cccc(F)c4)[nH]n3)ncnc2c1 [AZD2811] (first compound max 1 µM, 7x7, partner max 1 µM) | -0.0465 | -0.0227 | 0.0493 | -0.0278 | 0.0076 | 0.172 | 0.0502 | -0.0162 | 0.0053 | 0.0635 | 0.106 | -0.0596 | -0.0073 | 0.035 | 0.028 | 0.107 | 0.317 | 0.416 | 0.804 | 0.63 |
| Cc1c2c(nn1C)CSCc1cc(n(C)n1)CSc1cc(c3ccccc3c1)OCCCc1c(C(=O)O)n(C)c3c-2c(Cl)ccc13 [AZD5991] + C[C@@H](Nc1cc(F)cc(F)c1)c1cc(C(=O)N(C)C)cc2c(=O)cc(N3CCOCC3)oc12 [AZD8186] (first compound max 1 µM, 7x7, partner max 3 µM) | -0.0758 | -0.0206 | -0.0107 | 0.0005 | -0.0844 | 0.0316 | 0.0519 | -0.0116 | -0.0411 | -0.002 | -0.0036 | -0.0135 | -0.109 | -0.0601 | 0.0164 | -0.014 | 0.732 | 0.298 | 0.297 | 0.412 |
| CN(CCO)CC[C@H](CSc1ccccc1)Nc1ccc(S(=O)(=O)NC(=O)c2ccc(N3CCC([C@@H](O)c4ccccc4-c4ccc(Cl)cc4)CC3)cc2)cc1S(=O)(=O)C(F)(F)F [AZD4320] + Cn1cnc2c(F)c(Nc3ccc(Br)cc3Cl)c(C(=O)NOCCO)cc21 [Selumetinib] (first compound max 1 µM, 7x7, partner max 3 µM) | -0.0351 | 0.0178 | -0.006 | 0.0195 | 0.097 | 0.113 | 0.22 | 0.0229 | 0.0374 | -0.0145 | 0.0265 | -0.0849 | -0.0088 | -0.0245 | 0.0974 | 0.0328 | 0.516 | 0.313 | 0.351 | 0.219 |
| CC1(C)CCC(CN2CCN(c3ccc(C(=O)NS(=O)(=O)c4ccc(NCC5CCOCC5)c([N+](=O)[O-])c4)c(Oc4cnc5[nH]ccc5c4)c3)CC2)=C(c2ccc(Cl)cc2)C1 [Venetoclax] + CCN(CCO)CCCOc1ccc2c(Nc3cc(CC(=O)Nc4cccc(F)c4)[nH]n3)ncnc2c1 [AZD2811] (first compound max 1 µM, 7x7, partner max 1 µM) | -0.0359 | -0.028 | -0.0484 | -0.0359 | -0.0038 | 0.045 | -0.0262 | 0.0096 | -0.0193 | 0.0684 | 0.0345 | -0.118 | -0.0017 | 0.0928 | 0.0431 | -0.0297 | 0.197 | 0.255 | 0.419 | 0.714 |
| CC1(C)CCC(CN2CCN(c3ccc(C(=O)NS(=O)(=O)c4ccc(NCC5CCOCC5)c([N+](=O)[O-])c4)c(Oc4cnc5[nH]ccc5c4)c3)CC2)=C(c2ccc(Cl)cc2)C1 [Venetoclax] + C[C@@H](Nc1cc(F)cc(F)c1)c1cc(C(=O)N(C)C)cc2c(=O)cc(N3CCOCC3)oc12 [AZD8186] (first compound max 1 µM, 7x7, partner max 3 µM) | -0.0019 | 0.0083 | -0.184 | 0.029 | -0.0423 | -0.0197 | 0.0371 | -0.049 | 0.0083 | 0.0547 | 0.0144 | -0.0261 | -0.0384 | 0.0128 | -0.0162 | -0.0183 | 0.494 | 0.115 | 0.242 | 0.607 |
| Cc1c2c(nn1C)CSCc1cc(n(C)n1)CSc1cc(c3ccccc3c1)OCCCc1c(C(=O)O)n(C)c3c-2c(Cl)ccc13 [AZD5991] + CCN(CCO)CCCOc1ccc2c(Nc3cc(CC(=O)Nc4cccc(F)c4)[nH]n3)ncnc2c1 [AZD2811] (first compound max 1 µM, 7x7, partner max 1 µM) | -0.0319 | 0.0432 | -0.007 | -0.0257 | -0.0204 | 0.125 | 0.0649 | 0.0201 | -0.0173 | 0.0379 | 0.0761 | -0.0167 | 0.0145 | 0.0092 | 0.0412 | 0.0569 | 0.314 | 0.342 | 0.449 | 0.776 |
| CCc1c2c(nc3ccc(O)cc13)-c1cc3c(c(=O)n1C2)COC(=O)[C@]3(O)CC [SN-38] + CN(C)CCCOc1ccc(-c2ccc3ncc4c(c3c2)n(C2CCOCC2)c(=O)n4C)cn1 [AZD0156] (first compound max 0.3 µM, 7x7, partner max 1 µM) | -0.0257 | -0.031 | 0.0202 | 0.0135 | 0.0088 | 0.0988 | 0.068 | 0.0263 | -0.0722 | -0.0694 | 0.112 | -0.0393 | -0.0346 | -0.0197 | 0.0058 | 0.0393 | 0.727 | 0.307 | 1 | 0.768 |
| COc1cccc(OCCCN)c1-c1cc(Nc2cnc(C#N)cn2)n[nH]1 [Prexasertib] + C=CCn1c(=O)c2cnc(Nc3ccc(N4CCN(C)CC4)cc3)nc2n1-c1cccc(C(C)(C)O)n1 [AZD1775] (first compound max 1 µM, partner max 1 µM) | -0.0067 | 0.0424 | 0.0482 | 0.0269 | 0.0491 | 0.119 | 0.178 | 0.0521 | 0.0641 | 0.25 | 0.075 | 0.0374 | 0.0115 | 0.151 | 0.0937 | 0.0122 | 0.894 | 0.659 | 0.98 | 0.984 |
| CCN(CCO)CCCOc1ccc2c(Nc3cc(CC(=O)Nc4cccc(F)c4)[nH]n3)ncnc2c1 [AZD2811] + C[C@@H]1COCCN1C2=NC(=NC(=C2)C3(CC3)[S@](=N)(=O)C)C4=C5C=CNC5=NC=C4 [AZD6738] (first compound max 1 µM, 7x7, partner max 10 µM) | -0.0217 | -0.0492 | 0.0064 | -0.104 | -0.0872 | -0.0581 | -0.0164 | -0.0152 | -0.0399 | 0.0131 | 0.0144 | -0.0826 | -0.0866 | -0.0552 | -0.0192 | -0.023 | 0.83 | 0.533 | 0.869 | 0.816 |
| CC1(C)CCC(CN2CCN(c3ccc(C(=O)NS(=O)(=O)c4ccc(NCC5CCOCC5)c([N+](=O)[O-])c4)c(Oc4cnc5[nH]ccc5c4)c3)CC2)=C(c2ccc(Cl)cc2)C1 [Venetoclax] + C1CN(CCC1(C(=O)N[C@@H](CCO)C2=CC=C(C=C2)Cl)N)C3=NC=NC4=C3C=CN4 [Capivasertib] (first compound max 1 µM, 7x7, partner max 3 µM) | -0.045 | -0.008 | -0.182 | -0.0419 | 0.0038 | -0.0313 | -0.108 | -0.0173 | -0.0093 | 0.0537 | -0.009 | -0.045 | -0.0656 | 0.0185 | -0.0504 | -0.052 | 0.454 | 0.216 | 0.316 | 0.645 |
| CC1(C)CCC(CN2CCN(c3ccc(C(=O)NS(=O)(=O)c4ccc(NCC5CCOCC5)c([N+](=O)[O-])c4)c(Oc4cnc5[nH]ccc5c4)c3)CC2)=C(c2ccc(Cl)cc2)C1 [Venetoclax] + C[C@@H]1COCCN1C2=NC(=NC(=C2)C3(CC3)[S@](=N)(=O)C)C4=C5C=CNC5=NC=C4 [AZD6738] (first compound max 1 µM, 7x7, partner max 10 µM) | 0.0059 | -0.014 | -0.18 | -0.0637 | -0.0471 | 0.0228 | -0.0323 | -0.0796 | -0.0285 | 0.0561 | -0.0787 | -0.0184 | -0.0605 | -0.0494 | -0.0444 | 0.0026 | 0.767 | 0.472 | 0.897 | 0.804 |
